The source of these data is patent US20200140489A1 (priority 2013, published 2020).

The target of test [1] is T1, AgrC-I (Staphylococcus aureus, UniProt O07911). Kind of test: Hemolysis assay, wild-type group-I strain RN6390B, rabbit red blood cells. The settings on record: for IC50: read-out: AgrC-I IC50, hemolysis assay, 200 fM − 10 μM.
The target in test [2] is T2, AgrC-IV (Staphylococcus aureus, UniProt Q309Z2). Kind of test: Hemolysis assay, wild-type group-IV strain RN4850, rabbit red blood cells. Particulars: read-out: AgrC-IV IC50, hemolysis assay, 200 fM − 10 μM.
Test [3] addresses T3, AgrC-II (Staphylococcus aureus, UniProt O33587). Nature of the test: Hemolysis assay, wild-type group-II strain RN6923, rabbit red blood cells. Particulars: read-out: AgrC-II IC50, hemolysis assay, 200 fM − 10 μM.
Test [4] concerns the target T4, AgrC-III (Staphylococcus aureus, UniProt O33590). Kind of test: Hemolysis assay, wild-type group-III strain MN8, rabbit red blood cells.
Test [5] deals with T3, AgrC-II. The format is cell-based, S. aureus. The settings on record: for IC50: read-out: AgrC-II IC50, fluorescence reporter strain.
The target of test [6] is T2, AgrC-IV. Type of test: cell-based, S. aureus. Particulars: read-out: AgrC-IV IC50, fluorescence reporter strain.
Test [7] concerns the target T4, AgrC-III. Particulars: read-out: AgrC-III EC50; β-lactamase reporter strain; 2.5 pM − 10 μM.
The target of test [8] is T1, AgrC-I. Type of test: cell-based, S. aureus. Particulars: read-out: AgrC-I IC50.
Test [9] addresses T4, AgrC-III. The format is cell-based, S. aureus. Particulars: for IC50: read-out: AgrC-III IC50, fluorescence reporter strain.
Setting [10] is: read-out: AgrC-III IC50, 200 fM − 10 μM.
The mark [11] stands for this setting: AIPs tested over 200 fM − 10 μM or (b1) 2.5 pM − 10 μM, triplicate.
Setting [12] is: fluorescence reporter strain, AIPs tested over 200 fM − 10 μM or (b1) 2.5 pM − 10 μM, triplicate.
[13] abbreviates: second-generation analogues, 200 fM − 10 μM.
The mark [14] stands for this setting: selected second-generation analogues.
Where [15] appears, read: read-out: AgrC-III IC50, selected second-generation analogues, 200 fM − 10 μM.
Setting [16] is: second-generation analogues, fluorescence reporter strain, 200 fM − 10 μM.

Like-named read-outs stand apart in the source and are kept apart here. Positions of bridges follow the written chain, without caps; N, C: chain ends. Non-standard residues stand in square brackets, D forms with d. Residues, ends and D or L forms follow the SMILES beside them. NMeF = CN[C@@H](Cc1ccccc1)C(=O)O; NMeN = CN[C@@H](CC(N)=O)C(=O)O; NMeC = CN[C@@H](CS)C(=O)O

T2 sequence (Q309Z2 1-430): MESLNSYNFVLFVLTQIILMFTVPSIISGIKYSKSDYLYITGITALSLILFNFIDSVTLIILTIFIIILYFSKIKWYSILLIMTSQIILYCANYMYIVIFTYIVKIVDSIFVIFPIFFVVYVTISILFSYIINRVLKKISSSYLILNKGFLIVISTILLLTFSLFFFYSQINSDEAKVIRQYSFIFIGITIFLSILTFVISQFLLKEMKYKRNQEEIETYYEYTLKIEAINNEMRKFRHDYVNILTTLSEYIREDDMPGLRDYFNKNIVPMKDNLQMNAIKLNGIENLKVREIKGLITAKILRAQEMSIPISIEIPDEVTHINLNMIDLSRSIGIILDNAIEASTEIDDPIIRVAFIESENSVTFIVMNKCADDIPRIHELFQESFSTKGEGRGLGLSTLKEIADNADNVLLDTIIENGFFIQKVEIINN
T4 sequence (O33590 1-425): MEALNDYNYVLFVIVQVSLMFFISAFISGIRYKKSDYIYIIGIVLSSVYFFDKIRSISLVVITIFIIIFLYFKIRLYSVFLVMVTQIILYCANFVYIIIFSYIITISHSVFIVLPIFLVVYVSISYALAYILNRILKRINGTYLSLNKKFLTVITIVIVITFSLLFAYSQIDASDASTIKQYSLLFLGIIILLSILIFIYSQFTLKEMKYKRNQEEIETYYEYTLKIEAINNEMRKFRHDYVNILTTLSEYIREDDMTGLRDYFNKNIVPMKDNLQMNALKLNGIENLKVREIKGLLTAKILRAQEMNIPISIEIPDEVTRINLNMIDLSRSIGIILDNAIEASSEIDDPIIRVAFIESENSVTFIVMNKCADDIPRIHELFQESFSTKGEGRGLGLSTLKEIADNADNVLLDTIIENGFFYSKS
T3 sequence (O33587 1-437): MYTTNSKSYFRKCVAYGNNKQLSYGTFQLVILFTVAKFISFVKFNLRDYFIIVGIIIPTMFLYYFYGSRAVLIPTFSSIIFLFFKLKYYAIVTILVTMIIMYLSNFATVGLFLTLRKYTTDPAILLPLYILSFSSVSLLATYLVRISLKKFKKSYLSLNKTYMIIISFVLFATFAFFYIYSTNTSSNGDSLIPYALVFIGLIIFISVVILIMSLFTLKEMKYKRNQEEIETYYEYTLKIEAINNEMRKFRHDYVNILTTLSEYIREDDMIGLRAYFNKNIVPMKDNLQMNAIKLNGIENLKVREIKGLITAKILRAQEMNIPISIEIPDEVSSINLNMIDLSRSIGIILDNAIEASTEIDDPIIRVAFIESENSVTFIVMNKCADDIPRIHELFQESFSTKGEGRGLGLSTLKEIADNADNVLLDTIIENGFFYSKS
T1 sequence (O07911 1-430): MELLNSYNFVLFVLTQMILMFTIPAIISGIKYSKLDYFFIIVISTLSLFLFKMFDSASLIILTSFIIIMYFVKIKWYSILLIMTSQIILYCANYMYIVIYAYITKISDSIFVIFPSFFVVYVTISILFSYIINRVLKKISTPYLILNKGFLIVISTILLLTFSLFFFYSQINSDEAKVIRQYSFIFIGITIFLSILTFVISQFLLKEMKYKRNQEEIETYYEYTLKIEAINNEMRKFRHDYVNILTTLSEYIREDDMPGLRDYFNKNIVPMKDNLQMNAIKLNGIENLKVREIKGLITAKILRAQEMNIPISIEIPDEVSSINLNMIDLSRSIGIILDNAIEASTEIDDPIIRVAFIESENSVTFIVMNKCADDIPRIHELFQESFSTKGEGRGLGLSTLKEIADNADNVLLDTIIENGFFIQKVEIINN

Take `CC[C@H](C)[C@@H]1NC(=O)[C@H](Cc2ccccc2)NC(=O)[C@H](C)NC(=O)[C@@H](NC(C)=O)CSC(=O)[C@H](CCSC)NC1=O` [tAIP-I D2A, Ac-(C-A-F-I-M), reference compound] (Ac-CAFIM; thioester 1-C): the IC50 amounted to 1.45 nM on AgrC-I [1], 0.361 nM at AgrC-IV [2], 2.5 nM at AgrC-II [3] and 0.853 nM at AgrC-III [4] (setting [10]).

As for `CC[C@H](C)[C@H](N)C(=O)N[C@@H](CC(N)=O)C(=O)N(C)[C@H]1CSC(=O)[C@H](CC(C)C)NC(=O)[C@H](CC(C)C)NC(=O)[C@H](Cc2ccccc2)NC(=O)[C@H](CC(=O)O)NC1=O` [AIP-III N-Me-C3, I-N-(NMeC-D-F-L-L)] (H-IN[NMeC]DFLL; thioester 3-C), the IC50 stood at 134 nM at AgrC-II [5] (setting [11]), 106 nM on AgrC-IV [6] (setting [11]) and 137 nM at AgrC-I [8] (setting [12]). In addition, the EC50 (usually the concentration needed to bring the measured effect to its halfway point) at AgrC-III [7] was above 1000 nM.

With `CC(C)C[C@@H]1NC(=O)[C@H](Cc2ccccc2)NC(=O)[C@H](CC(=O)O)NC(=O)[C@@H](NC(=O)[C@H](CC(N)=O)NC(=O)[C@H](C)N)CSC(=O)[C@H](CC(C)C)NC1=O` [AIP-III I1A, A-N-(C-D-F-L-L)] (H-ANCDFLL; thioester 3-C), the IC50 at AgrC-II [5] (setting [11]) is 4.26 nM; at AgrC-I [1], 4.61 nM; on AgrC-IV [6] (setting [11]), 7.85 nM; at AgrC-III [9] (setting [11]), 194 nM; on AgrC-IV [2], 12.5 nM; at AgrC-II [3], 1.29 nM. In addition, the IC50 on AgrC-I [8] (setting [12]) came to 17.9 nM.

Consider `CC(=O)N[C@H]1CSC(=O)[C@H](CC(C)C)NC(=O)[C@H](CC(C)C)NC(=O)[C@H](Cc2ccc(O)cc2)NC(=O)[C@H](C)NC1=O` [tAIP-III D2A/F3Y, Ac-(C-A-Y-L-L)] (Ac-CAYLL; thioester 1-C), for which the IC50 at AgrC-II [5] (setting [13]) is 1.15 nM; at AgrC-I [1] (setting [14]), 0.279 nM; at AgrC-IV [6] (setting [13]), 0.0306 nM; at AgrC-III [9] (setting [13]) it was 0.387 nM; on AgrC-IV [2] (setting [14]), 0.134 nM; at AgrC-II [3] (setting [14]), 0.204 nM. Further, the IC50 on AgrC-III [4] (setting [15]) was 0.265 nM; on AgrC-I [8], 0.279 nM.

Take `CC[C@H](C)[C@@H]1NC(=O)[C@H](Cc2ccccc2)NC(=O)[C@H](CC(=O)O)NC(=O)[C@@H](NC(=O)[C@@H](NC(=O)[C@H](CO)NC(=O)[C@@H](N)Cc2ccc(O)cc2)[C@@H](C)O)CSC(=O)[C@H](CCSC)NC1=O` [AIP-I, Y-S-T-(C-D-F-I-M), reference compound] (H-YSTCDFIM; thioester 4-C): the IC50 at AgrC-II [5] (setting [11]) stood at 8 nM; on AgrC-III [9] (setting [11]), 0.522 nM; on AgrC-IV [2] it was 189 nM; at AgrC-II [3], 3.34 nM; at AgrC-III [4] (setting [10]), 6.12 nM.

On to `CC(C)C[C@@H]1NC(=O)[C@H](Cc2ccccc2)NC(=O)[C@H](C)NC(=O)[C@@H](NC(=O)[C@H](CC(N)=O)NC(=O)[C@H](C)N)CSC(=O)[C@H](CC(C)C)NC1=O` [AIP-III I1A/D4A, A-N-(C-A-F-L-L)] (H-ANCAFLL; thioester 3-C), for which, at AgrC-II [5] (gfp reporter), the “fold change against AgrC-II relative to AIP-III D4A” value is on record as below 5 fold. The IC50 at AgrC-II [5] (setting [13]) is 2.35 nM; on AgrC-I [1] (setting [14]), 0.0103 nM; at AgrC-IV [6] (setting [13]), 0.101 nM; on AgrC-III [9] (setting [13]), 0.28 nM; on AgrC-IV [2] (setting [14]) it was 0.284 nM; at AgrC-II [3] (setting [14]) it was 0.793 nM. Besides, the IC50 at AgrC-III [4] (setting [15]) stood at 0.551 nM; at AgrC-I [8] (setting [16]), 0.328 nM. For the same molecule, on AgrC-I [1] (group-I), the “fold lower concentrations inhibiting hemolysis than AIP-III D4A” value is “eight”.

With `CC[C@H](C)[C@H](N)C(=O)N[C@@H](CC(N)=O)C(=O)N[C@H]1CSC(=O)[C@H](CC(C)C)NC(=O)[C@H](CC(C)C)NC(=O)[C@H](Cc2ccccc2)N(C)C(=O)[C@H](CC(=O)O)NC1=O` [AIP-III N-Me-F5, I-N-(C-D-NMeF-L-L)] (H-INCD[NMeF]LL; thioester 3-C), the figures for the IC50 at AgrC-II [5] (setting [11]), at AgrC-IV [6] (setting [11]) and on AgrC-I [8] (setting [12]) were 1.95 nM, 6.59 nM and 4.49 nM, respectively. For the same molecule, the EC50 at AgrC-III [7] was 49.6 nM.

For `CC[C@H](C)[C@H](N)C(=O)N[C@@H](C)C(=O)N[C@H]1CSC(=O)[C@H](CC(C)C)NC(=O)[C@H](CC(C)C)NC(=O)[C@H](Cc2ccccc2)NC(=O)[C@H](CC(=O)O)NC1=O` [AIP-III N2A, I-A-(C-D-F-L-L)] (H-IACDFLL; thioester 3-C), the IC50 at AgrC-II [5] (setting [11]) was 0.732 nM; on AgrC-I [1], 1.02 nM; on AgrC-IV [6] (setting [11]), 3.53 nM; at AgrC-IV [2], 2.64 nM; on AgrC-II [3], 0.137 nM; on AgrC-I [8] (setting [12]) it was 3.6 nM. In addition, at AgrC-III [9] (gfp/fluorescence assay), the “AgrC-III activity” value was “weak agonist”.

Regarding `CC(=O)N[C@H]1CSC(=O)[C@H](CC(C)C)NC(=O)[C@H](CC(C)C)NC(=O)[C@H](Cc2c[nH]c3ccccc23)NC(=O)[C@H](C)NC1=O` [Ac-(C-A-W-L-L)] (Ac-CAWLL; thioester 1-C), the IC50 on AgrC-II [5] (setting [13]) is 1.9 nM; on AgrC-I [1] (setting [14]), 0.468 nM; at AgrC-IV [6] (setting [13]), 0.0363 nM; on AgrC-III [9] (setting [13]), 0.509 nM; on AgrC-IV [2] (setting [14]), 0.194 nM; at AgrC-II [3] (setting [14]) it was 0.126 nM. The IC50 at AgrC-III [4] (setting [15]) came out at 1.08 nM; on AgrC-I [8] (setting [16]), 0.909 nM.

Take `CC[C@H](C)[C@H](N)C(=O)N[C@@H](C)C(=O)N[C@H]1CSC(=O)[C@H](CC(C)C)NC(=O)[C@H](CC(C)C)NC(=O)[C@H](Cc2ccccc2)NC(=O)[C@H](C)NC1=O` [AIP-III N2A/D4A, I-A-(C-A-F-L-L)] (H-IACAFLL; thioester 3-C): the IC50 was 0.204 nM at AgrC-II [5] (setting [13]); 0.0362 nM at AgrC-I [1] (setting [14]); 0.0221 nM on AgrC-IV [6] (setting [13]); 0.0657 nM on AgrC-III [9] (setting [13]); 0.122 nM on AgrC-IV [2] (setting [14]); 0.0661 nM at AgrC-II [3] (setting [14]). For the same molecule, the IC50 on AgrC-III [4] (setting [15]) is 0.216 nM; at AgrC-I [8] (setting [16]), 0.331 nM.

Turning to `CC(C)C[C@@H]1NC(=O)[C@H](Cc2ccccc2)NC(=O)[C@H](C)NC(=O)[C@@H](NC(=O)[C@H](C)NC(=O)[C@H](C)N)CSC(=O)[C@H](CC(C)C)NC1=O` [AIP-III I1A/N2A/D4A, A-A-(C-A-F-L-L)] (H-AACAFLL; thioester 3-C), the IC50 at AgrC-II [5] (setting [13]) is 0.604 nM; at AgrC-I [1] (setting [14]), 0.0411 nM; on AgrC-IV [6] (setting [13]), 0.0161 nM; on AgrC-III [9] (setting [13]) it was 0.0734 nM; at AgrC-IV [2] (setting [14]), 0.14 nM; at AgrC-II [3] (setting [14]) it was 0.0606 nM. Moreover, the IC50 worked out at 0.243 nM at AgrC-III [4] (setting [15]) and 0.304 nM on AgrC-I [8] (setting [16]).

`CC(C)C[C@@H]1NC(=O)[C@H](CO)NC(=O)[C@H](CO)NC(=O)[C@@H](NC(=O)[C@H](C)NC(=O)[C@H](CC(N)=O)NC(=O)[C@@H](NC(=O)CN)C(C)C)CSC(=O)[C@H](Cc2ccccc2)NC1=O` [AIP-II, G-V-N-A-(C-S-S-L-F), reference compound] (H-GVNACSSLF; thioester 5-C): the IC50 on AgrC-I [1] stood at 0.89 nM; on AgrC-IV [6] (setting [11]), 0.396 nM; on AgrC-III [9] (setting [11]), 0.532 nM; on AgrC-IV [2], 1.19 nM; on AgrC-III [4] (setting [10]), 3.59 nM; at AgrC-I [8], 1.62 nM.

Regarding `CC[C@H](C)[C@@H]1NC(=O)[C@H](Cc2ccccc2)NC(=O)[C@H](Cc2ccc(O)cc2)NC(=O)[C@@H](NC(=O)[C@@H](NC(=O)[C@H](CO)NC(=O)[C@@H](N)Cc2ccc(O)cc2)[C@@H](C)O)CSC(=O)[C@H](CCSC)NC1=O` [AIP-IV, Y-S-T-(C-Y-F-I-M), reference compound] (H-YSTCYFIM; thioester 4-C), the IC50 worked out at 0.373 nM at AgrC-II [5] (setting [11]), 0.46 nM on AgrC-III [9] (setting [11]), 0.0897 nM on AgrC-II [3] and 1.49 nM at AgrC-III [4] (setting [10]).

`CC[C@H](C)[C@H](N)C(=O)N(C)[C@@H](CC(N)=O)C(=O)N[C@H]1CSC(=O)[C@H](CC(C)C)NC(=O)[C@H](CC(C)C)NC(=O)[C@H](Cc2ccccc2)NC(=O)[C@H](CC(=O)O)NC1=O` [AIP-III N-Me-N2, I-NMeN-(C-D-F-L-L)] (H-I[NMeN]CDFLL; thioester 3-C): the results for the IC50 on AgrC-II [5] (setting [11]), at AgrC-IV [6] (setting [11]) and at AgrC-I [8] (setting [12]) were 3.19 nM, 9.54 nM and 8.04 nM, respectively. Besides, the half-maximal effective concentration (EC50) at AgrC-III [7] was 19 nM.
